Data taken from ChEMBL document CHEMBL2169826, “Pharmacokinetic benefits of 3,4-dimethoxy substitution of a phenyl ring and design of isosteres yielding orally available cathepsin K inhibitors” (J Med Chem, 2012).

Experiments:
[1] = Inhibition of osteoclastogenesis in human bone marrow-derived stem cells assessed as reduction of pit formation by measuring TRACP5b activity after 7 days by bone TRAP assay; format: functional; conditions: 168 h
[2] = Volume of distribution at steady state in Alderley Park Han Wistar rat at 2 mg/kg, iv and 2 mg/kg, po; format: ADME, organism-based; conditions: in vivo, read-out: Vdss
[3] = Oral bioavailability in Alderley Park Han Wistar rat at 2 mg/kg; format: ADME, organism-based; conditions: in vivo
[4] = Volume of distribution at steady state in Beagle dog at 1 mg/kg, iv and 1 mg/kg, po; format: ADME, organism-based, Canis lupus familiaris; conditions: in vivo, read-out: Vdss
[5] = Oral bioavailability in Beagle dog at 1 mg/kg; format: ADME, organism-based, Canis lupus familiaris; conditions: in vivo
[6] = Percentage unbound in rat plasma; format: ADME, cell-free
[7] = Percentage unbound in dog plasma; format: ADME, cell-free, Canis lupus familiaris
[8] = Percentage unbound in human plasma; format: ADME, cell-free
[9] = Aqueous solubility of the compound in at pH 7.4; conditions: buffer
Cathepsin B = Cathepsin B (Homo sapiens, UniProt P07858); assay: Inhibition of human recombinant cathepsin-B using Z-Arg-Arg-AMC as substrate preincubated for 15 mins measured after 1 hr by QFRET assay
Cathepsin K = biological target: T1, Cathepsin K (Homo sapiens, UniProt P43235); assay: Inhibition of human recombinant cathepsin-k using Z-Phe-Arg-AMC as substrate preincubated for 15 mins measured after 1 hr by QFRET assay
T1 sequence (P43235 whole entry): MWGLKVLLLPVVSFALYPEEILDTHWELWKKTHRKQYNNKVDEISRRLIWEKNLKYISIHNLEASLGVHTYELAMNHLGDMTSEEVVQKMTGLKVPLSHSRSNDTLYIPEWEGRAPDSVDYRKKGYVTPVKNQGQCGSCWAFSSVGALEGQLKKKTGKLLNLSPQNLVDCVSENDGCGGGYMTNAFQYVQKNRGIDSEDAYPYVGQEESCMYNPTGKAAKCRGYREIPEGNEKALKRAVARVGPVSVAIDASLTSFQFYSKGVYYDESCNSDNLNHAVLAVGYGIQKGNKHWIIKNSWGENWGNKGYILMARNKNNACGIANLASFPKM

Procathepsin L = Procathepsin L (Homo sapiens, UniProt P07711); assay: Inhibition of human recombinant cathepsin-L using Z-Phe-Arg-AMC as substrate preincubated for 15 mins measured after 1 hr by QFRET assay
Cathepsin S = Cathepsin S (Homo sapiens, UniProt P25774); assay: Inhibition of human recombinant cathepsin-S using Z-Val-Val-Arg-AMC as substrate preincubated for 15 mins measured after 1 hr by QFRET assay
physchem = conditions: buffer, pH 7.4
[10] = Metabolic stability of the compound in rat liver microsomes assessed as compound turnover after 120 mins
[11] = Clearance in rat; format: ADME, organism-based; conditions: in vivo
[12] = Volume of distribution at steady state in rat; format: ADME, organism-based; conditions: in vivo, read-out: Vdss
[13] = Oral bioavailability in rat; format: ADME, organism-based; conditions: in vivo
in vivo [14] = conditions: Alderley Park Han Wistar, rat, plasma, iv, 2 mg/kg
Homo sapiens = species: Homo sapiens; assay: Selectivity ratio of IC50 for human recombinant cathepsin-K to IC50 for human recombinant cathepsin-B
[15] = Metabolic stability of the compound in human liver microsomes assessed as compound turnover after 120 mins
in vivo [16] = conditions: beagle, dog, plasma, iv, 1 mg/kg

Chain of Cathepsin S (P25774 whole entry): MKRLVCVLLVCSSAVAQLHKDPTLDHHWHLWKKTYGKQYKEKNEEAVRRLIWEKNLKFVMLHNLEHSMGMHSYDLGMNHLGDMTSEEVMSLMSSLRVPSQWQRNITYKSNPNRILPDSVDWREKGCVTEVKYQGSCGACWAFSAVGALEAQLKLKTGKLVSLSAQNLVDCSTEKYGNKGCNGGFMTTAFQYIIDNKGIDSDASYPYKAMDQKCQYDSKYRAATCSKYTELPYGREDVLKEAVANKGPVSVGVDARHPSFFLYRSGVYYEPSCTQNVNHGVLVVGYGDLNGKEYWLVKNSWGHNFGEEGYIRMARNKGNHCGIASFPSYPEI
Chain of Procathepsin L (P07711 whole entry): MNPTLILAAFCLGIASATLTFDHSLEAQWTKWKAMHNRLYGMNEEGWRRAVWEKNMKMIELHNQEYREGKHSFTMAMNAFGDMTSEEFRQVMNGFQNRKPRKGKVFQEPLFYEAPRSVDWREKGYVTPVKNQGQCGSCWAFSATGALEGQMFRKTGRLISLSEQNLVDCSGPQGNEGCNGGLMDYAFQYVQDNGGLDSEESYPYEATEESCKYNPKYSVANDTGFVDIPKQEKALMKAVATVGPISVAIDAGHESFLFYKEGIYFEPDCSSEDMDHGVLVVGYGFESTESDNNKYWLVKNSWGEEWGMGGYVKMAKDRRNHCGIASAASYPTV

| Structure (SMILES) | IC50 [1] [nM] | Vd [2] [L/kg] | bioavailability [3] [%] | bioavailability [5] [%] | fraction unbound [6] | fraction unbound [8] | solubility [9] [µM] | IC50 (Cathepsin B) [nM] | IC50 (Cathepsin K) [nM] | IC50 (Procathepsin L) [nM] | IC50 (Cathepsin S) [nM] | logD (physchem) | microsomal CLint at 2 h [10] [µL/min/mg] | clearance (in vivo [14]) [mL/min/kg] | further results |
| --- | --- | --- | --- | --- | --- | --- | --- | --- | --- | --- | --- | --- | --- | --- | --- |
| COc1ccc(N2CCN(C(=O)[C@@H]3CCCC[C@H]3C(=O)NC3(C#N)CC3)[C@H](C)C2)cc1OC | 40 | 1.2 | 46 | 71 | 0.53 | 0.39 | > 2400 | 1850 | 4 | > 10000 | 1450 | 1.9 |  |  | Vd [4]: 0.8 L/kg; fraction unbound [7]: 0.39 |
| N#CC1(NC(=O)[C@@H]2CCCC[C@H]2C(=O)N2CCN(c3ccc(F)cc3)CC2)CC1 |  | 1.3 | 0 |  | > 0.53 | > 0.5 |  |  |  |  |  |  | 35 | 36 | clearance [11]: 36 mL/min/kg; Vd [12]: 1.3 L/kg; bioavailability [13]: 0% |
| COc1ccc(N2CCN(C(=O)[C@@H]3CCCC[C@H]3C(=O)NC3(C#N)CC3)CC2)cc1OC | 126 |  | 41 | 79 |  | 0.45 | > 2500 | 3060 | 9 | > 10000 | 2290 | 1.4 | < 7.4 | 29 | Ratio IC50 (Homo sapiens): 340; microsomal CLint at 2 h [15]: 2.3 µL/min/mg; clearance (in vivo [16]): 12 mL/min/kg |
